Pest or weed control data for 15 compounds are collected here from US20230329236A1, “HERBICIDAL PYRIMIDINE DERIVATIVES” (MoA Technology Limited, priority 2020, published 2023).

Broadly, the pest or weed control is the degree to which the test organism was suppressed or injured, in per cent. Read a high pest or weed control as a strong effect.

One assay has as its system Lolium multiflorum (LOLMU). As to the kind of experiment: Post-emergence glasshouse test, visual injury, LOLMU. Conditions: 336 h, Table 3, post-emergence, 500 g/ha, 14±1 days post application. The assay is classed as in vivo. Here is the method: (§1) Seeds of a variety of test species are grown in a sandy loam soil mixture, Lolium multiflorum (LOLMU), Amaranthus retroflexus (AMARE), Echinochloa crus-gaffi (ECHCG), Veronica persica (VERPE), Glycine max (GLXMA), Oryza sativa (ORYSA), Zea mays (ZEAMX), spring wheat (TRZAS), Ipomoea hederacea (IPOHE), Ipomoea purpurea (PHBPU), Stellaria media (STEME), Solanum nigrum (SOLNI), Digitaria sanguinalis (DIGSA), Setaria italica (SETIT), Alopecurus myosuroides (ALOMY) and Avena fatua (AVEFA).
(§2) After sowing, at growth stage BBCH 12-14 (post-emergence), the plants are sprayed with an aqueous spray solution derived from the formulation of the technical active ingredient in acetone/water (50:50) solution containing 0.5% Tween 20 (polyoxyethlyene sorbitan monolaureate, CAS RN 9005-64-5). The test compounds are applied at the required concentration of active ingredient in g/ha. The test plants are then grown in a glasshouse under controlled environmental conditions and watered regularly as required. After 14±1 days post application (for post-emergence test), the test is evaluated by assessing the percentage damage caused to the plants in comparison with the untreated plots. The biological activities for post-emergence testing are shown below (Table 3 and Table 4) as a % visual injury.
For the compound `Cc1cc(-c2cnc(NCCc3c(C)noc3C)nc2C2CC2)on1` [Compound 46], the pest or weed control at 500 g/ha was determined as 60%.

`Cc1cc(-c2cnc(NC(C)C)nc2-c2ccc(C)o2)on1` [Compound 51]: the pest or weed control at 500 g/ha turned out to be 0%.

Compound `Cc1cc(-c2cnc(N3CCCC3)nc2C(C)C)on1` [Compound 29] came in with a pest or weed control at 500 g/ha of 0%.

As to `CCOCCCNc1ncc(-c2cc(C)no2)c(C(C)(C)C)n1` [Compound 40], the pest or weed control at 500 g/ha was found to be 0%.

For the compound `Cc1cc(-c2cnc(N3CCCCC3)nc2C2CC2)on1` [Compound 31], the pest or weed control at 500 g/ha is 0%.

In the case of `COc1ccccc1CNc1ncc(-c2cc(C)no2)c(-c2ccc(C)o2)n1` [Compound 23], the pest or weed control at 500 g/ha amounted to 0%.

`COCCCNc1ncc(-c2cc(C)no2)c(C(C)C)n1` [Compound 32] had a pest or weed control at 500 g/ha of 0%.

In the case of `Cc1cc(-c2cnc(N3CCC(O)C(C)C3)nc2-c2ccc(C)o2)on1` (stereo not drawn) [Compound 36], the pest or weed control at 500 g/ha was found to be 0%.

As to `Cc1cc(-c2cnc(N3CCC(C(N)=O)CC3)nc2C(C)(C)C)on1` [Compound 26], the pest or weed control at 500 g/ha was determined as 0%.

Turning to `Cc1cc(-c2cnc(N3CCNC(=O)C3)nc2-c2ccc(C)o2)on1` [Compound 37], the pest or weed control at 500 g/ha is 0%.

Compound `Cc1cc(-c2cnc(N3CCC(O)C(C)C3)nc2C2CC2)on1` (stereo not drawn) [Compound 60] had a pest or weed control at 500 g/ha of 70%.

As to `Cc1cc(-c2cnc(NCc3ccccc3F)nc2C2CC2)on1` [Compound 81], the pest or weed control at 500 g/ha was 30%.

As for `Cc1cc(-c2cnc(N3CCN(c4ncccn4)CC3)nc2C(C)(C)C)on1` [Compound 61], the pest or weed control at 500 g/ha is 0%.

Take `CC(=O)N1CCN(c2ncc(-c3cc(C)no3)c(C3CC3)n2)CC1` [Compound 50]: the pest or weed control at 500 g/ha was found to be 0%.

Regarding `Cc1cc(-c2cnc(N3CCN(S(=O)(=O)N(C)C)CC3)nc2C2CC2)on1` [Compound 53], the pest or weed control at 500 g/ha was determined as 20%.

The test system of another assay is Echinochloa crus-gaffi (ECHCG). Kind of assay: Post-emergence glasshouse test, visual injury, ECHCG. The assay is classed as in vivo, Echinochloa crus-galli. The conditions noted are these: 336 h, Table 3, post-emergence, 500 g/ha, 14±1 days post application. The method, then:
as §1, §2
Consider `Cc1cc(-c2cnc(NCCc3c(C)noc3C)nc2C2CC2)on1` [Compound 46], for which the pest or weed control at 500 g/ha was determined as 70%.

Consider `Cc1cc(-c2cnc(NC(C)C)nc2-c2ccc(C)o2)on1` [Compound 51], for which the pest or weed control at 500 g/ha was found to be 70%.

Consider `Cc1cc(-c2cnc(N3CCCC3)nc2C(C)C)on1` [Compound 29], for which the pest or weed control at 500 g/ha is 50%.

In the case of `CCOCCCNc1ncc(-c2cc(C)no2)c(C(C)(C)C)n1` [Compound 40], the pest or weed control at 500 g/ha was 30%.

In turn, `Cc1cc(-c2cnc(N3CCCCC3)nc2C2CC2)on1` [Compound 31] gave a pest or weed control at 500 g/ha of 30%.

In turn, `COc1ccccc1CNc1ncc(-c2cc(C)no2)c(-c2ccc(C)o2)n1` [Compound 23] came in with a pest or weed control at 500 g/ha of 50%.

Compound `COCCCNc1ncc(-c2cc(C)no2)c(C(C)C)n1` [Compound 32] showed a pest or weed control at 500 g/ha of 100%.

The compound `Cc1cc(-c2cnc(N3CCC(O)C(C)C3)nc2-c2ccc(C)o2)on1` (stereo not drawn) [Compound 36] came in with a pest or weed control at 500 g/ha of 30%.

Turning to `Cc1cc(-c2cnc(N3CCC(C(N)=O)CC3)nc2C(C)(C)C)on1` [Compound 26], the pest or weed control at 500 g/ha worked out at 30%.

The compound `Cc1cc(-c2cnc(N3CCNC(=O)C3)nc2-c2ccc(C)o2)on1` [Compound 37] gave a pest or weed control at 500 g/ha of 0%.

`Cc1cc(-c2cnc(N3CCC(O)C(C)C3)nc2C2CC2)on1` (stereo not drawn) [Compound 60] returned a pest or weed control at 500 g/ha of 30%.

With `Cc1cc(-c2cnc(NCc3ccccc3F)nc2C2CC2)on1` [Compound 81], the pest or weed control at 500 g/ha amounted to 80%.

Compound `Cc1cc(-c2cnc(N3CCN(c4ncccn4)CC3)nc2C(C)(C)C)on1` [Compound 61] had a pest or weed control at 500 g/ha of 0%.

As to `CC(=O)N1CCN(c2ncc(-c3cc(C)no3)c(C3CC3)n2)CC1` [Compound 50], the pest or weed control at 500 g/ha was 50%.

In turn, `Cc1cc(-c2cnc(N3CCN(S(=O)(=O)N(C)C)CC3)nc2C2CC2)on1` [Compound 53] showed a pest or weed control at 500 g/ha of 50%.

For a further assay, the system named is Veronica persica (VERPE). Kind of assay: Post-emergence glasshouse test, visual injury, VERPE. The assay is classed as in vivo. The conditions noted are these: 336 h, Table 3, post-emergence, 500 g/ha, 14±1 days post application. Here is the method:
as §1, §2
For the compound `Cc1cc(-c2cnc(NCCc3c(C)noc3C)nc2C2CC2)on1` [Compound 46], the pest or weed control at 500 g/ha stood at 50%.

In the case of `Cc1cc(-c2cnc(NC(C)C)nc2-c2ccc(C)o2)on1` [Compound 51], the pest or weed control at 500 g/ha turned out to be 0%.

As to `Cc1cc(-c2cnc(N3CCCC3)nc2C(C)C)on1` [Compound 29], the pest or weed control at 500 g/ha amounted to 50%.

With `CCOCCCNc1ncc(-c2cc(C)no2)c(C(C)(C)C)n1` [Compound 40], the pest or weed control at 500 g/ha came to 0%.

The compound `Cc1cc(-c2cnc(N3CCCCC3)nc2C2CC2)on1` [Compound 31] displayed a pest or weed control at 500 g/ha of 0%.

The compound `COc1ccccc1CNc1ncc(-c2cc(C)no2)c(-c2ccc(C)o2)n1` [Compound 23] yielded a pest or weed control at 500 g/ha of 80%.

The compound `COCCCNc1ncc(-c2cc(C)no2)c(C(C)C)n1` [Compound 32] registered a pest or weed control at 500 g/ha of 90%.

In turn, `Cc1cc(-c2cnc(N3CCC(O)C(C)C3)nc2-c2ccc(C)o2)on1` (stereo not drawn) [Compound 36] displayed a pest or weed control at 500 g/ha of 0%.

As for `Cc1cc(-c2cnc(N3CCC(C(N)=O)CC3)nc2C(C)(C)C)on1` [Compound 26], the pest or weed control at 500 g/ha turned out to be 60%.

As to `Cc1cc(-c2cnc(N3CCNC(=O)C3)nc2-c2ccc(C)o2)on1` [Compound 37], the pest or weed control at 500 g/ha is 0%.

On to `Cc1cc(-c2cnc(N3CCC(O)C(C)C3)nc2C2CC2)on1` (stereo not drawn) [Compound 60], for which the pest or weed control at 500 g/ha was found to be 60%.

Take `Cc1cc(-c2cnc(NCc3ccccc3F)nc2C2CC2)on1` [Compound 81]: the pest or weed control at 500 g/ha was determined as 80%.

`Cc1cc(-c2cnc(N3CCN(c4ncccn4)CC3)nc2C(C)(C)C)on1` [Compound 61] registered a pest or weed control at 500 g/ha of 0%.

`CC(=O)N1CCN(c2ncc(-c3cc(C)no3)c(C3CC3)n2)CC1` [Compound 50] showed a pest or weed control at 500 g/ha of 0%.

In the case of `Cc1cc(-c2cnc(N3CCN(S(=O)(=O)N(C)C)CC3)nc2C2CC2)on1` [Compound 53], the pest or weed control at 500 g/ha came out at 0%.

For a further assay, the system named is Amaranthus retroflexus (AMARE). Kind of assay: Post-emergence glasshouse test, visual injury, AMARE. In kind it is in vivo. The conditions noted are these: 336 h, Table 3, post-emergence, 500 g/ha, 14±1 days post application. Here is the method:
as §1, §2
With `Cc1cc(-c2cnc(NCCc3c(C)noc3C)nc2C2CC2)on1` [Compound 46], the pest or weed control at 500 g/ha worked out at 90%.

Consider `Cc1cc(-c2cnc(NC(C)C)nc2-c2ccc(C)o2)on1` [Compound 51], for which the pest or weed control at 500 g/ha came out at 0%.

For the compound `Cc1cc(-c2cnc(N3CCCC3)nc2C(C)C)on1` [Compound 29], the pest or weed control at 500 g/ha worked out at 0%.

`CCOCCCNc1ncc(-c2cc(C)no2)c(C(C)(C)C)n1` [Compound 40] registered a pest or weed control at 500 g/ha of 70%.

Compound `Cc1cc(-c2cnc(N3CCCCC3)nc2C2CC2)on1` [Compound 31] registered a pest or weed control at 500 g/ha of 70%.

As to `COc1ccccc1CNc1ncc(-c2cc(C)no2)c(-c2ccc(C)o2)n1` [Compound 23], the pest or weed control at 500 g/ha is 70%.

Turning to `COCCCNc1ncc(-c2cc(C)no2)c(C(C)C)n1` [Compound 32], the pest or weed control at 500 g/ha came out at 90%.

Take `Cc1cc(-c2cnc(N3CCC(O)C(C)C3)nc2-c2ccc(C)o2)on1` (stereo not drawn) [Compound 36]: the pest or weed control at 500 g/ha was found to be 30%.

Take `Cc1cc(-c2cnc(N3CCC(C(N)=O)CC3)nc2C(C)(C)C)on1` [Compound 26]: the pest or weed control at 500 g/ha came out at 0%.

Consider `Cc1cc(-c2cnc(N3CCNC(=O)C3)nc2-c2ccc(C)o2)on1` [Compound 37], for which the pest or weed control at 500 g/ha worked out at 50%.

Compound `Cc1cc(-c2cnc(N3CCC(O)C(C)C3)nc2C2CC2)on1` (stereo not drawn) [Compound 60] had a pest or weed control at 500 g/ha of 60%.

`Cc1cc(-c2cnc(NCc3ccccc3F)nc2C2CC2)on1` [Compound 81] yielded a pest or weed control at 500 g/ha of 98%.

On to `Cc1cc(-c2cnc(N3CCN(c4ncccn4)CC3)nc2C(C)(C)C)on1` [Compound 61], for which the pest or weed control at 500 g/ha stood at 60%.

Regarding `CC(=O)N1CCN(c2ncc(-c3cc(C)no3)c(C3CC3)n2)CC1` [Compound 50], the pest or weed control at 500 g/ha is 60%.

For the compound `Cc1cc(-c2cnc(N3CCN(S(=O)(=O)N(C)C)CC3)nc2C2CC2)on1` [Compound 53], the pest or weed control at 500 g/ha worked out at 20%.
